Experimental data from the NIST ThermoML archive (doi:10.1021/je3002305).
± gives the expanded uncertainty stated by the source.

Test: refractive index (Na D-line) (dimensionless)
Conditions: 293.1 K; 101.33 kPa; Liquid; Standard Abbe refractometry

Structure (SMILES) | refractive index
CCCCn1cc[n+](C)c1.F[P-](F)(F)(F)(F)F [1-butyl-3-methylimidazolium hexafluorophosphate] | 1.4101 ± 0.0008
CCCCCCn1cc[n+](C)c1.F[P-](F)(F)(F)(F)F [1-hexyl-3-methylimidazolium hexafluorophosphate] | 1.4176 ± 0.0008
CCCCCCCC[n+]1ccn(C)c1.F[P-](F)(F)(F)(F)F [1-octyl-3-methylimidazolium hexafluorophosphate] | 1.4231 ± 0.0008
CCCCc1ccccc1 [butylbenzene] | 1.4894 ± 0.0008
CCCCCCCCCCCC [dodecane] | 1.4221 ± 0.0008
